These results are taken from US12435072B2, “Compounds” (Vicore Pharma AB, priority 2019, dated 2025).

Data set [1] in a line: Metabolic stability in pooled human liver microsomes. Conditions: pooled human liver microsomes 0.5 mg/ml, 1 μM test compound, 37° C. It is filed as in vitro ADME.
Data set [2] addresses T1, human recombinant AT1 receptor (Homo sapiens, UniProt P30556).
T1 construct: purchased Eurofins ITEM24
T1 sequence (P30556 1-359): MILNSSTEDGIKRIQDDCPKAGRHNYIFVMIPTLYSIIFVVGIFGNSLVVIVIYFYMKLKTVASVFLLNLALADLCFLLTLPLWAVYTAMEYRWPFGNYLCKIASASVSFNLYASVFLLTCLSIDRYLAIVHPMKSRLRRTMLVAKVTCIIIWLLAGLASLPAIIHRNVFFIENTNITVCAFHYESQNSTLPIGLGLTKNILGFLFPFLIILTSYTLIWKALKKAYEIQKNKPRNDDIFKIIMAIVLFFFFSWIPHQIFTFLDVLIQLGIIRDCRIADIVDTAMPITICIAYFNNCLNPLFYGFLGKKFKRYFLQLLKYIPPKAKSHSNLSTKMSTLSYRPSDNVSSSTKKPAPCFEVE
Put plainly: Binding to AT1 receptor, radiometric scintillation assay (Eurofins). To be noted: ligand 125I(sar1,Ile8)-AT-II, tested at 1 and 10 μM. How it is done:
Compounds were evaluated for binding to the human recombinant AT2 and AT1 receptor according to Eurofins protocol ITEM26 and ITEM24 using a radiometric scintillation assay.

A further data set concerns the target T2, CYP1A (Homo sapiens, UniProt P05177).
T2 construct: incubated with human liver microsomes; tissue Eurofins ITEMG232; host or cells: human liver microsomes
T2 sequence (P05177 1-516): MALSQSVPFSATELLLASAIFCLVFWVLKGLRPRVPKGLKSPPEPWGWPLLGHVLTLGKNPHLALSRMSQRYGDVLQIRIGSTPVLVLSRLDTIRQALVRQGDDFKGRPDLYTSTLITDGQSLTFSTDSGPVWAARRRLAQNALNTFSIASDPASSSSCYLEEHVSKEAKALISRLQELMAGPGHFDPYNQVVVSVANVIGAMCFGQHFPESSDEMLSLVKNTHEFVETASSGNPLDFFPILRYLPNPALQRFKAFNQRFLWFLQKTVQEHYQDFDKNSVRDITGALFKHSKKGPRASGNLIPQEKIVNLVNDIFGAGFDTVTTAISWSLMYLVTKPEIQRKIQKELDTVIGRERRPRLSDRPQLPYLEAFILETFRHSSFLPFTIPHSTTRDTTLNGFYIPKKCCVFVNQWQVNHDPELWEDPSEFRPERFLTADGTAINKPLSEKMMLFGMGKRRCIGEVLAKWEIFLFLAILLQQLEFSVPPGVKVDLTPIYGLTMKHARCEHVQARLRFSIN
Nature of the data set: CYP inhibition in human liver microsomes, CYP1A. To be noted: probe phenacetin, substrate phenacetin, read-out: CYP1A Inh %. It is filed as in vitro ADME. Here is the method:
(§1) The following substrates were used: CYP1A phenacetin, CYP2B6 bupropion, CYP2C8 paclitaxel and amodiaquine, CYP2C9 diclofenac, CYP2C19 omeprazole, CYP2D6 dextromethorphan, CYP3A midazolam and testosterone. At the end of the incubation, the formation of metabolite was monitored by HPLC-MS/MS as the peak area response.

The target of the next data set is T3, CYP2C19 (Homo sapiens, UniProt P33261).
T3 construct: incubated with human liver microsomes; tissue Eurofins ITEMG232; host or cells: human liver microsomes
T3 sequence (P33261 whole entry): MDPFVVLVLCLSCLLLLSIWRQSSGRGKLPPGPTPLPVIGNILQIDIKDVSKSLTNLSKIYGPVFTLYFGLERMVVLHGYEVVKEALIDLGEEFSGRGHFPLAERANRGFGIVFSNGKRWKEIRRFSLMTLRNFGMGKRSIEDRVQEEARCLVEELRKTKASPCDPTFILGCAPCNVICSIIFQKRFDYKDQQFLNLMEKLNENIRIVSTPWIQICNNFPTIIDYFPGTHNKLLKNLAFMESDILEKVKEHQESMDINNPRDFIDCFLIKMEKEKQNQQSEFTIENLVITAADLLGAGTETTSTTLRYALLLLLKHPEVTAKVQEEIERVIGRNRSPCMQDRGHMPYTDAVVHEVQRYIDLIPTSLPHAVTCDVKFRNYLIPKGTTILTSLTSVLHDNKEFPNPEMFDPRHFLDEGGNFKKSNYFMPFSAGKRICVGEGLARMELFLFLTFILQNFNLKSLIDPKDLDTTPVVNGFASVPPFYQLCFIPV
Put plainly: CYP inhibition in human liver microsomes, CYP2C19. It is filed as in vitro ADME. To be noted: probe omeprazole, substrate omeprazole, read-out: CYP2C19 Inh %. How it is done:
as §1

The target in another data set is T4, CYP2C8 (Homo sapiens, UniProt P10632).
T4 construct: incubated with human liver microsomes; tissue Eurofins ITEMG232; host or cells: human liver microsomes
T4 sequence (P10632 1-490): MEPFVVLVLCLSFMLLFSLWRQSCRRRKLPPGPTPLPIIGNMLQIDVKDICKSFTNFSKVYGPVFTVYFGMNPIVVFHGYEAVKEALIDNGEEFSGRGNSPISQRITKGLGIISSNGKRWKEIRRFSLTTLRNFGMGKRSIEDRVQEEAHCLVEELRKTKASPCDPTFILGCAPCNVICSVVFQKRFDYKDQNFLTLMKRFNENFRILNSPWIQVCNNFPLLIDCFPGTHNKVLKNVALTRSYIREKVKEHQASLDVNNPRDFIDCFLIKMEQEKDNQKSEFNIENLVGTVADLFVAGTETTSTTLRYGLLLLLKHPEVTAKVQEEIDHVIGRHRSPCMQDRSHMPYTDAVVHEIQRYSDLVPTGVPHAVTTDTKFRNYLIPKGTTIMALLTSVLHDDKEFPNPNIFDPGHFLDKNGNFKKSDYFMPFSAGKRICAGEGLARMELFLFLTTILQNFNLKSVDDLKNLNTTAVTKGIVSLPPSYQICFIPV
Nature of the data set: CYP inhibition in human liver microsomes, CYP2C8. Conditions: probe paclitaxel and amodiaquine, substrate paclitaxel and amodiaquine, read-out: CYP2C8 Inh %. It is filed as in vitro ADME. An outline of the steps: (§2)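 Human liver microsomes were incubated with isoform-selective probe substrates: diclofenac for CYP2C9, dextromethorphan for CYP2D6, and paclitaxel and amodiaquine for CYP2C8. After incubation, metabolite formation was measured by HPLC-MS/MS as peak area response.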

A further data set addresses T5, CYP2D6 (Homo sapiens, UniProt P10635).
T5 construct: incubated with human liver microsomes; tissue Eurofins ITEMG232; host or cells: human liver microsomes
Put plainly: CYP inhibition in human liver microsomes, CYP2D6. To be noted: probe dextromethorphan, substrate dextromethorphan, read-out: CYP2D6 Inh %. Format: in vitro ADME. Summed up: as §2

The next data set relates to CYP3A4&5. Put plainly: CYP inhibition in human liver microsomes, CYP3A4&5 (testosterone). Format: in vitro ADME. Conditions: probe testosterone, substrate testosterone, read-out: CYP3A4&5 testosterone Inh %. Here is the method:
as §1

The target of another data set is CYP2C9 (Homo sapiens, UniProt P11712). Put plainly: CYP inhibition in human liver microsomes, CYP2C9. Conditions: probe diclofenac, substrate diclofenac, read-out: CYP2C9 Inh %. Details: incubated with human liver microsomes; tissue Eurofins ITEMG232; host or cells: human liver microsomes. It is filed as in vitro ADME. An outline of the steps: as §2
CYP2C9, sequence (P11712 whole entry): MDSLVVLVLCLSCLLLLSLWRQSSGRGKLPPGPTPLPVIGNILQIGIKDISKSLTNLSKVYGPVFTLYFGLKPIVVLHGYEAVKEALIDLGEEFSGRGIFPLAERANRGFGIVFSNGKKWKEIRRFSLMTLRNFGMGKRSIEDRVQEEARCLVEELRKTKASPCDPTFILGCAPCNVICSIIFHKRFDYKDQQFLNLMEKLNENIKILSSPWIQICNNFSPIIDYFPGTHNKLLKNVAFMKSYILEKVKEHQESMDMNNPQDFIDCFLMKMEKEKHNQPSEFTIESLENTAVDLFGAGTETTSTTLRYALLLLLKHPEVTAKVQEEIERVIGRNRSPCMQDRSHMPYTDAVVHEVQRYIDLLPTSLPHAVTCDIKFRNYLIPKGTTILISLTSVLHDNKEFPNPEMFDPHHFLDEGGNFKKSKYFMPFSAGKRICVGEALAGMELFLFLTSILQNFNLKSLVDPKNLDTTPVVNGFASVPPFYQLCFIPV
For another data set, the target named is CYP3A4 (Homo sapiens, UniProt P08684). Nature of the data set: CYP inhibition in human liver microsomes, CYP3A4 (midazolam). Also on record: incubated with human liver microsomes; tissue Eurofins ITEMG232; host or cells: human liver microsomes. Conditions: probe midazolam, substrate midazolam, read-out: CYP3A4 midazolam Inh %. Format: in vitro ADME. How it is done: as §1
CYP3A4, sequence (P08684 whole entry): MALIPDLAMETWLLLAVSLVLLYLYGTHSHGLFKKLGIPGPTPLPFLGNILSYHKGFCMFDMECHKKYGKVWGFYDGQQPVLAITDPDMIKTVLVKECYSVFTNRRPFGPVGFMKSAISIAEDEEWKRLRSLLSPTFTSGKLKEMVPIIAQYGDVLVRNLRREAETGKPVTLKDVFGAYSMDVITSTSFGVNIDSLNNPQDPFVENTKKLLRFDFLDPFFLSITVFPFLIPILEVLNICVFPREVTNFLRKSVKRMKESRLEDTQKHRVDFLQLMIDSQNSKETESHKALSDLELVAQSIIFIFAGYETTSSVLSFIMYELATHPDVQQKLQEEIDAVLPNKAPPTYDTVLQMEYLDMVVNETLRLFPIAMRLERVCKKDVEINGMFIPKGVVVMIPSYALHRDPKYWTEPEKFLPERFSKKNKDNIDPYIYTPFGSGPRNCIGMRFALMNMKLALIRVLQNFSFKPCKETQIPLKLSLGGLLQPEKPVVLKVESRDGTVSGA

Where [3] appears, read: with 1 mM NADPH, read-out: T1/2, + NaDPH.
Where [4] appears, read: without NADPH, read-out: T1/2, no NaDPH.

Like-named read-outs stand apart in the source and are kept apart here. Some results are limits rather than exact numbers.

T5 sequence (P10635 whole entry): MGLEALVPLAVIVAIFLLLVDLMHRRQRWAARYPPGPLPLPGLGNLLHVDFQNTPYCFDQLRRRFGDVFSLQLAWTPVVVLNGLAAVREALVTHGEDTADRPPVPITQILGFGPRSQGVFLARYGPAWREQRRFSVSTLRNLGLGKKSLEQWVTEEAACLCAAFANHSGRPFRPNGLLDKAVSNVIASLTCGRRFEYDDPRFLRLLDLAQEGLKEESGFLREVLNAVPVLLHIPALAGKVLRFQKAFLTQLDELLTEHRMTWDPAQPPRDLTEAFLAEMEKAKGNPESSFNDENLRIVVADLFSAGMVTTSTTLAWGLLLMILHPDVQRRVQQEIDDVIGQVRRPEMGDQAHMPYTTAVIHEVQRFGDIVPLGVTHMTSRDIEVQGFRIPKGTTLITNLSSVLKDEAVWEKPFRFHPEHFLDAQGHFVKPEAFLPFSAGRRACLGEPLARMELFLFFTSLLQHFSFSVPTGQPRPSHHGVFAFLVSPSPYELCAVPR

As to `Cc1nccn1Cc1ccc(-c2cc(CC(C)C)sc2S(=O)(=O)NC(=O)NCC(C)C)cc1F.O=C(O)C(F)(F)F` [Example 39, 1-[(3-{3-fluoro-4-[(2-methyl-1H-imidazol-1-yl)methyl]phenyl}-5-(2-methylpropyl)thiophen-2-yl)sulfonyl]-3-(2-methylpropyl)urea trifluoroacetic acid], the half-life at 1 μM in [1] (setting [3]) was 1 h; in data set [1] (setting [4]), more than 1 h. In addition, the IC50 in data set [2] turned out to be 16 µM. In addition, the inhibition at 10 µM was -2% on CYP1A; 56% on CYP2C19; 51% at CYP2C8; 10% at CYP2D6; 27% in the data set with CYP3A4&5; 44% at CYP2C9. The inhibition at 10 µM at CYP3A4 was 18%.
Turning to `Cc1nccn1Cc1ccc(-c2cc(CC(C)C)sc2S(=O)(=O)NC(=O)NCC2CCC(F)(F)CC2)cc1F.O=C(O)C(F)(F)F` [Example 40, 1-[(4,4-difluorocyclohexyl)methyl]-3-[(3-{3-fluoro-4-[(2-methyl-1H-imidazol-1-yl)methyl]phenyl}-5-(2-methylpropyl)thiophen-2-yl)sulfonyl]urea trifluoroacetic acid], the values for the half-life at 1 μM in data set [1] (setting [3]) and in data set [1] (setting [4]) were 0.0667 h and more than 1 h, respectively. In addition, the IC50 in data set [2] amounted to 17 µM. The inhibition at 10 µM at CYP1A was -1%; at CYP2C19, 80%; at CYP2C8, 64%; on CYP2D6, 47%; in the data set on CYP3A4&5, 63%; at CYP2C9, 70%. Moreover, on CYP3A4, the inhibition at 10 µM worked out at 85%.
Take `CC(C)Cc1cc(-c2ccc(Cn3ccnc3C(C)C)c(F)c2)c(S(=O)(=O)NC(=O)NCCC(F)(F)F)s1.O=C(O)C(F)(F)F` [Example 41, 1-{[3-(3-fluoro-4-{[2-(propan-2-yl)-1H-imidazol-1-yl]methyl}phenyl)-5-(2-methylpropyl)thiophen-2-yl]sulfonyl}-3-(3,3,3-trifluoropropyl)urea trifluoroacetic acid]: the results for the half-life at 1 μM in data set [1] (setting [3]) and in data set [1] (setting [4]) were 0.717 h and more than 1 h, respectively. Further, the IC50 in data set [2] was 4 µM. In addition, the inhibition at 10 µM on CYP1A is 5%; on CYP2C19, 53%; on CYP2C8, 76%; at CYP2D6, 12%; in the data set on CYP3A4&5, 10%; on CYP2C9 it was 58%. In addition, the inhibition at 10 µM at CYP3A4 is -5%.
